In brackets after ≈: the same amount, converted by molar mass.
Tests used:
Candida albicans [1] = test: Antifungal activity against Candida albicans CGMCC 2.2086 assessed as inhibition of fungal growth incubated for 48 hrs; type: functional
[2] = Stability of the compound in NaCl assessed as change in secondary structure by CD spectra analysis; type: physicochemical
Candida albicans [3] = test: Antifungal activity against Candida albicans CGMCC 2.2086 assessed as inhibition of fungal growth incubated for 48 hrs in presence of NaCl; type: functional
Candida albicans [4] = test: Antifungal activity against Fluconazole-resistant Candida albicans 58288 assessed as inhibition of fungal growth incubated for 48 hrs; type: functional
Candida albicans [5] = test: Antifungal activity against Candida albicans CGMCC 2.2086 assessed as inhibition of fungal growth incubated for 48 hrs in presence of MgCl2; type: functional
Candida albicans [6] = test: Antifungal activity against Candida albicans CGMCC 2.2086 assessed as inhibition of fungal growth incubated for 48 hrs in presence of KCl; type: functional
Candida albicans [7] = test: Antifungal activity against Candida albicans CGMCC 2.2086 assessed as inhibition of fungal growth incubated for 48 hrs in presence of CaCl2; type: functional
[8] = Hemolytic activity in human red blood cells assessed as hemolysis rate at 512 uM incubated for 1 hr relative to control; type: toxicity, cell-based, Erythrocyte; conditions: read-out: Activity
Candida albicans [9] = test: Antifungal activity against Candida albicans 56452 assessed as inhibition of fungal growth incubated for 48 hrs; type: functional
Candida albicans [10] = test: Antifungal activity against Candida albicans CGMCC 2.2086 assessed as inhibition of fungal growth incubated for 48 hrs in presence of FeCl3; type: functional
Candida albicans [11] = test: Antifungal activity against Candida albicans CGMCC 2.2086 assessed as inhibition of fungal growth incubated for 48 hrs in presence of NH4Cl; type: functional
[12] = Stability of the compound in CaCl2 assessed as change in secondary structure by CD spectra analysis; type: physicochemical
Candida albicans [13] = test: Antifungal activity against Candida albicans CGMCC 2.2086 assessed as inhibition of fungal growth incubated for 48 hrs in presence of ZnCl2; type: functional
Candida albicans [14] = test: Antifungal activity against Candida albicans SP3903 assessed as inhibition of fungal growth incubated for 48 hrs; type: functional
Candida albicans [15] = test: Antifungal activity against Fluconazole-resistant Candida albicans 56214 assessed as inhibition of fungal growth incubated for 48 hrs; type: functional
Candida albicans [16] = test: Antifungal activity against Candida albicans 17546 assessed as inhibition of fungal growth incubated for 48 hrs; type: functional
[17] = Stability of the compound in KCl assessed as change in secondary structure by CD spectra analysis; type: physicochemical
[18] = Stability of the compound in ZnCl2 assessed as change in secondary structure by CD spectra analysis; type: physicochemical
HEK293 = test: Cytotoxicity against HEK293 cells assessed as reduction in cell viability at 128 uM incubated for 4 hrs by MTT assay; type: toxicity, cell-based; conditions: human, hek293, 4 h
Candida albicans [19] = test: Antifungal activity against Candida albicans SP3902 assessed as inhibition of fungal growth incubated for 48 hrs; type: functional
Candida albicans [20] = test: Antifungal activity against Candida albicans 14936 assessed as inhibition of fungal growth incubated for 48 hrs; type: functional
[21] = Hemolytic activity in human red blood cells assessed as hemolysis incubated for 1 hr; type: toxicity, cell-based, Erythrocyte
Candida parapsilosis = test: Antifungal activity against Candida parapsilosis CGMCC 2.3989 assessed as inhibition of fungal growth incubated for 48 hrs; type: functional; conditions: Lodderomyces parapsilosis
[22] = Stability of the compound in NH4Cl assessed as change in secondary structure by CD spectra analysis; type: physicochemical
[23] = Stability of the compound in FeCl3 assessed as change in secondary structure by CD spectra analysis; type: physicochemical
[24] = Stability of the compound in MgCl2 assessed as change in secondary structure by CD spectra analysis; type: physicochemical
[25] = Cytotoxicity against porcine IPEC-J2 cells assessed as reduction in cell viability at 128 uM incubated for 4 hrs by MTT assay; type: toxicity, cell-based, Sus scrofa; conditions: pig, ipec-j2, 4 h
Candida albicans [26] = test: Antifungal activity against Candida albicans SP3931 assessed as inhibition of fungal growth incubated for 48 hrs; type: functional
Candida tropicalis = test: Antifungal activity against Candida tropicalis CGMCC 2.1975 assessed as inhibition of fungal growth incubated for 48 hrs; type: functional
Candida albicans [27] = test: Antifungal activity against Candida albicans SP3876 assessed as inhibition of fungal growth incubated for 48 hrs; type: functional

Structure (SMILES)	MIC95 (Candida albicans [1]) [µM]	Stability [2]	MIC95 (Candida albicans [3]) [µM]	MIC95 (Candida albicans [4]) [µM]	MIC95 (Candida albicans [5]) [µM]	MIC95 (Candida albicans [6]) [µM]	MIC95 (Candida albicans [7]) [µM]	hemolysis at 1 h, 512 µM [8] [%]	MIC95 (Candida albicans [9]) [µM]	MIC95 (Candida albicans [10]) [µM]	MIC95 (Candida albicans [11]) [µM]	MIC95 (Candida albicans [14]) [µM]	MIC95 (Candida albicans [15]) [µM]	MIC95 (Candida albicans [16]) [µM]	MIC95 (Candida albicans [19]) [µM]	MIC95 (Candida albicans [20]) [µM]	MIC95 (Candida parapsilosis) [µM]	MIC95 (Candida albicans [26]) [µM]	MIC95 (Candida tropicalis) [µM]	MIC95 (Candida albicans [27]) [µM]	further results
CC[C@H](C)[C@H](N)C(=O)N[C@H](C(=O)N[C@H](CCCNC(=N)N)C(=O)N[C@@H](CCCNC(=N)N)C(=O)N[C@@H](Cc1c[nH]cn1)C(=O)N[C@H](C(=O)N[C@H](C(=O)N[C@H](C(=O)N[C@H](C(=O)N[C@H](CCCNC(=N)N)C(=O)N[C@@H](CCCNC(=N)N)C(=O)N[C@@H](Cc1c[nH]cn1)C(=O)N[C@H](C(=O)N[C@H](C(=O)N[C@H](C(=O)N[C@H](C(=O)N[C@H](CCCNC(=N)N)C(=O)N[C@@H](CCCNC(=N)N)C(=O)N[C@@H](Cc1c[nH]cn1)C(=O)N[C@H](C(=O)N[C@H](C(=O)N[C@H](C(=O)N[C@H](C(=O)N[C@H](CCCNC(=N)N)C(=O)N[C@@H](CCCNC(=N)N)C(=O)N[C@@H](Cc1c[nH]cn1)C(=O)N[C@H](C(=O)N[C@H](C(N)=O)[C@@H](C)CC)[C@@H](C)CC)[C@@H](C)CC)[C@@H](C)CC)[C@@H](C)CC)[C@@H](C)CC)[C@@H](C)CC)[C@@H](C)CC)[C@@H](C)CC)[C@@H](C)CC)[C@@H](C)CC)[C@@H](C)CC)[C@@H](C)CC)[C@@H](C)CC)[C@@H](C)CC	4 (≈ 14.5 µg/mL)	Unstable	32	8 (≈ 29 µg/mL)	8	8	16	38.9	8 (≈ 29 µg/mL)	16	8	4 (≈ 14.5 µg/mL)	4 (≈ 14.5 µg/mL)	8 (≈ 29 µg/mL)	4 (≈ 14.5 µg/mL)	4 (≈ 14.5 µg/mL)	4 (≈ 14.5 µg/mL)	8 (≈ 29 µg/mL)	4 (≈ 14.5 µg/mL)	4 (≈ 14.5 µg/mL)	Stability [12]: Stable; MIC95 (Candida albicans [13]): 16 µM; Stability [17]: Stable; Stability [18]: Stable; Activity (HEK293): Toxic; HC50 at 1 h [21]: > 512 µM; Stability [22]: Stable; Stability [23]: Stable; Stability [24]: Stable; Activity [25]: Toxic
CC[C@H](C)[C@H](N)C(=O)N[C@H](C(=O)N[C@H](CCCNC(=N)N)C(=O)N[C@@H](CCCNC(=N)N)C(=O)N[C@@H](Cc1c[nH]cn1)C(=O)N[C@H](C(=O)N[C@H](C(N)=O)[C@@H](C)CC)[C@@H](C)CC)[C@@H](C)CC	> 64	Unstable	> 64	> 64	> 64	> 64	> 64	-1.57	> 64	> 64	> 64	> 64	> 64	> 64	64 (≈ 58.8 µg/mL)	> 64	> 64	> 64	64 (≈ 58.8 µg/mL)	> 64	Stability [12]: Stable; MIC95 (Candida albicans [13]): > 64 µM; Stability [17]: Stable; Stability [18]: Stable; HC50 at 1 h [21]: > 512 µM; Stability [22]: Stable; Stability [23]: Stable; Stability [24]: Stable
CC[C@H](C)[C@H](N)C(=O)N[C@H](C(=O)N[C@H](CCCNC(=N)N)C(=O)N[C@@H](CCCNC(=N)N)C(=O)N[C@@H](Cc1c[nH]cn1)C(=O)N[C@H](C(=O)N[C@H](C(=O)N[C@H](C(=O)N[C@H](C(=O)N[C@H](CCCNC(=N)N)C(=O)N[C@@H](CCCNC(=N)N)C(=O)N[C@@H](Cc1c[nH]cn1)C(=O)N[C@H](C(=O)N[C@H](C(N)=O)[C@@H](C)CC)[C@@H](C)CC)[C@@H](C)CC)[C@@H](C)CC)[C@@H](C)CC)[C@@H](C)CC)[C@@H](C)CC	16 (≈ 29.1 µg/mL)	Unstable	> 64	32 (≈ 58.3 µg/mL)	64	32	> 64	1.84	32 (≈ 58.3 µg/mL)	64	32	64 (≈ 117 µg/mL)	64 (≈ 117 µg/mL)	64 (≈ 117 µg/mL)	8 (≈ 14.6 µg/mL)	32 (≈ 58.3 µg/mL)	32 (≈ 58.3 µg/mL)	16 (≈ 29.1 µg/mL)	2 (≈ 3.64 µg/mL)	32 (≈ 58.3 µg/mL)	Stability [12]: Stable; MIC95 (Candida albicans [13]): 64 µM; Stability [17]: Stable; Stability [18]: Stable; HC50 at 1 h [21]: > 512 µM; Stability [22]: Stable; Stability [23]: Stable; Stability [24]: Stable
CC(C)[C@H](N)C(=O)N[C@H](C(=O)N[C@H](CCCNC(=N)N)C(=O)N[C@@H](CCCNC(=N)N)C(=O)N[C@@H](Cc1c[nH]cn1)C(=O)N[C@H](C(=O)N[C@H](C(=O)N[C@H](C(=O)N[C@H](C(=O)N[C@H](CCCNC(=N)N)C(=O)N[C@@H](CCCNC(=N)N)C(=O)N[C@@H](Cc1c[nH]cn1)C(=O)N[C@H](C(=O)N[C@H](C(N)=O)C(C)C)C(C)C)C(C)C)C(C)C)C(C)C)C(C)C)C(C)C	> 64	Unstable	> 64	> 64	> 64	> 64	> 64	-1.2	> 64	> 64	64	> 64	> 64	64 (≈ 109 µg/mL)	> 64	> 64	> 64	> 64	4 (≈ 6.84 µg/mL)	> 64	Stability [12]: Stable; MIC95 (Candida albicans [13]): > 64 µM; Stability [17]: Stable; Stability [18]: Stable; HC50 at 1 h [21]: > 512 µM; Stability [22]: Stable; Stability [23]: Stable; Stability [24]: Stable
CC(=O)N1CCN(c2ccc(OCC3COC(Cn4ccnc4)(c4ccc(Cl)cc4Cl)O3)cc2)CC1 (centres undefined) [KETOCONAZOLE]	2 (≈ 1.06 µg/mL)			> 64					1 (≈ 0.531 µg/mL)			4 (≈ 2.13 µg/mL)	> 64	2 (≈ 1.06 µg/mL)	2 (≈ 1.06 µg/mL)	4 (≈ 2.13 µg/mL)	4 (≈ 2.13 µg/mL)	4 (≈ 2.13 µg/mL)	2 (≈ 1.06 µg/mL)	16 (≈ 8.5 µg/mL)	
CC(C)[C@H](N)C(=O)N[C@H](C(=O)N[C@H](CCCNC(=N)N)C(=O)N[C@@H](CCCNC(=N)N)C(=O)N[C@@H](Cc1c[nH]cn1)C(=O)N[C@H](C(=O)N[C@H](C(N)=O)C(C)C)C(C)C)C(C)C	> 64	Unstable	> 64	> 64	> 64	> 64	> 64	-0.02	> 64	> 64	> 64	> 64	> 64	> 64	> 64	> 64	> 64	> 64	64 (≈ 55.2 µg/mL)	> 64	Stability [12]: Stable; MIC95 (Candida albicans [13]): > 64 µM; Stability [17]: Stable; Stability [18]: Stable; HC50 at 1 h [21]: > 512 µM; Stability [22]: Stable; Stability [23]: Stable; Stability [24]: Stable

— ChEMBL document CHEMBL6134779, “Design of Proteolytic-Resistant Antifungal Peptides by Utilizing Minimum d-Amino Acid Ratios” (J Med Chem, 2024)
